According to patent publication US20180000778A1, “SMALL MOLECULE ANTAGONISTS OF DUSP5 AND METHODS OF USE” (THE MEDICAL COLLEGE OF WISCONSIN, INC., priority 2015, published 2018):
Several values for one entry are separate records, joined by “and”; a condition that tells them apart may be missing. Equal entries are not always repeated.

Assays:
DUSP5 PD(WT) = target: T1, DUSP5 PD(WT) (Homo sapiens, UniProt Q16690); experiment: pNPP phosphatase activity assay with DUSP5 PD(WT); assay type: biochemical
T1 construct: hexa-histidine (N); made in house; host or cells: E. coli BL21(DE3)
T1 sequence (Q16690 178-319 limits assumed): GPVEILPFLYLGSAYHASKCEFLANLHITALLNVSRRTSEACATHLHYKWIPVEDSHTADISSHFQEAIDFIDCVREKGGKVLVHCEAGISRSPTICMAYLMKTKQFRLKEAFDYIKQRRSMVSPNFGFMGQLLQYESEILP
Text: p-Nitrophenolphosphatase (pNPP) Activity Assay.
To measure enzymatic activity of the DUSP5 PD and the inhibitory capacity of selected molecules, an in vitro phosphatase assay was developed based on previous studies (27). In this assay, DUSP5 PD dephosphorylates the substrate p-nitrophenol phosphate (pNPP, Sigma Aldrich), yielding p-nitrophenolate, which absorbs at 405 nm with an extinction coefficient of 18,000 M-1 cm-1.
Thus, an increase in absorbance at 405 nm corresponds to the turnover of pNPP top-nitrophenolate. The assay was initially optimized in 1 mL quartz cuvettes, then was subsequently optimized for and validated in a 96-well plate format. All IC50 values were obtained using the 96-well plate assay format (see below). The assay buffer contained 100 mM Tris, 100 mM sodium chloride, 5 mM magnesium chloride, and 1 mM dithiothreitol (DTT) at pH 7.5. The pNPP substrate was prepared as a 50 mM stock by dissolving the solid substrate in assay buffer. The DUSP5 PD and pNPP were assayed initially in a cuvette (1 mL total volume) and initial velocities were fitted to the Michaelis-Menten equation (1)
where v is the initial velocity, Vmax is the maximum velocity, Km is the Michaelis constant, and [S] is the concentration of pNPP. Data were fitted using a nonlinear least squares fit to eq. 1, with GraphPad Prism 6 software.
For the 96-well plate validation assay, sodium orthovanadate (Sigma Aldrich) was utilized as a positive control for inhibition (Swarup et al., Biochem Biophys Res Commun. 1982; 107:1104-9.) at a final concentration of 10 μM, to completely block activity. All plate assays were performed in standard 96-well clear bottom plates (Thermo Scientific Nunc) with a total assay volume of 200 μL, using a SpectraMax M5 Microplate Reader (Molecular Devices). The plate validation assay was performed with replicate columns of positive control wells, negative control wells and blank wells. Blank columns contained only buffer and pNPP. Negative control (uninhibited) contained buffer, pNPP, and DUSP5 PD; and, positive control contained the same components, but also contained 10 μM sodium orthovanadate. The plate was then shaken and allowed to equilibrate in the spectrophotometer at 25° C. for 30 min. After incubation, 4 μL of a […] was dispensed into appropriate wells utilizing a single-channel pipette. This produced a final enzyme concentration of 1 μM. Before a read was taken, the plate was shaken for five seconds. The initial rate for the DUSP5 PD reaction was linear for approximately 90 min; and, the plate was kept in the spectrophotometer at 25° C. for an additional 80 min after the kinetic read. The endpoint reading was subsequently taken at 90 min after initiation of reaction. Slopes from the kinetic read, as well as single-point absorbance values at the 90-minute endpoint read, were then averaged. For blank wells and positive control wells, both slope values (continuous assay) and single point absorbance values (fixed time assay) were approximately zero, as expected. Standard deviations were calculated and a Z′ value (Zhang et al., J Biomol Screening. 1999; 4:67-73) subsequently determined using the following equation: […]
IC50 values were obtained using the assay described above, in 96 well plates. The maximum inhibitor concentration screened in any plate was […] and the minimum was 1.5 μM. The IC50 plate was designed so that the first column of wells served as blanks, with wells containing only buffer and substrate. The second column of wells functioned as the plate negative control, with each well containing buffer, substrate and enzyme. The remaining wells in the plate contained buffer, substrate, enzyme, and varying amounts of inhibitor, with inhibitor concentration increasing from left to right across the plate. Data points were collected in triplicate, and inhibitor concentrations were chosen to provide data equally spread on a logarithmic scale. […]

mutant DUSP5 = mutant DUSP5 (Homo sapiens, UniProt Q16690, S147P); experiment: Restoration of mutant DUSP5 function
[1] = tested on: normal vasculature in a developing embryo; experiment: Effect on normal vasculature in a developing embryo
[2] = target: T2, GST-tagged full length DUSP5 (Homo sapiens, UniProt Q16690); experiment: pNPP assay with GST-tagged full length DUSP5; assay type: biochemical; details: full length DUSP5, pNPP as substrate; listed as CSD3-2320
T2 construct: GST-tagged full length DUSP5, when pNPP was used as a substrate

DUSP5 (PD)-WT = target: T3, DUSP5 (PD)-WT (Homo sapiens, UniProt Q16690); experiment: Phosphatase inhibition profiles (Table 4), initial rates; assay type: biochemical; details: using ERK2 as substrate, read-out: IC50 DUSP5 (PD)-WT (mean ± SE)
T3 construct: hexa-histidine (N); made in house; host or cells: E. coli BL21(DE3)
T3 sequence (Q16690 178-319): T1 sequence (Q16690 178-319 limits assumed)

PTPN1 = target: T4, PTPN1 (Homo sapiens, UniProt P18031); experiment: as above; assay type: biochemical
T4 sequence (P18031 1-435): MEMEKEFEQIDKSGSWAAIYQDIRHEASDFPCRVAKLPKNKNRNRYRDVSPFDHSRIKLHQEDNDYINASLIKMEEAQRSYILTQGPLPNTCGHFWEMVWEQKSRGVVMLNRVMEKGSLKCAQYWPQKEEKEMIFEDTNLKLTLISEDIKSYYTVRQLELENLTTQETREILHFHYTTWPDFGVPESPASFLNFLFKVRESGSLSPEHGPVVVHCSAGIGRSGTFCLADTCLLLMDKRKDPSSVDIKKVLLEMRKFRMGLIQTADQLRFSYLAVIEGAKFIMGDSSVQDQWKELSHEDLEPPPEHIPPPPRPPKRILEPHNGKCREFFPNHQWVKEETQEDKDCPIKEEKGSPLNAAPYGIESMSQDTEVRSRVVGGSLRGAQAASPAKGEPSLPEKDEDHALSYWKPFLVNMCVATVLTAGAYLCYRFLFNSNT

T2 sequence (Q16690 whole entry): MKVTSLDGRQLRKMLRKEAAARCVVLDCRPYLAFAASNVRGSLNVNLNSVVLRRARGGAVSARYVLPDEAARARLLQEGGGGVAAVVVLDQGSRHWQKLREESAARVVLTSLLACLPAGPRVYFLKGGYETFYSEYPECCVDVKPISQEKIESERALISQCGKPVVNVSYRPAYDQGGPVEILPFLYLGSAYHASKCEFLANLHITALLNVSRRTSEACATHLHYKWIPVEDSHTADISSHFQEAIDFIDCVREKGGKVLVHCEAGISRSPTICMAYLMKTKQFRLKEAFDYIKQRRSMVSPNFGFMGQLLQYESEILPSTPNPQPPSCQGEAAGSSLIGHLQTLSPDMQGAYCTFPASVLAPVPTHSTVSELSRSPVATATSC
Sequence of mutant DUSP5 (Q16690 whole entry S147P): as the sequence (Q16690 whole entry) above, with S147P counted along it

| IC50 (DUSP5 PD(WT); pNPP assay with DUSP5 PD) | IC50 (DUSP5 PD(WT); phosphatase domain alone, pNPP) | IC50 [2] | IC50 (DUSP5 (PD)-WT) | IC50 PTPN1 (mean ± SE) (PTPN1) | Compound | IC50's, range in words (DUSP5 PD(WT); enzyme inhibition (FIG. 3)) | effect on mutant DUSP5 function (mutant DUSP5) | effect on normal vasculature [1] |
| --- | --- | --- | --- | --- | --- | --- | --- | --- |
| – | – | – | – | – | O=S(=O)([O-])c1ccc2[nH]c3c(S(=O)(=O)[O-])cc(S(=O)(=O)[O-])cc3c2c1.[Na+].[Na+].[Na+] [RR505, Carbazole-1,3,6-trisulfonic acid, Trisodium Salt] | mM range | appears to restore mutant DUSP5's function | does not appear to affect normal vasculature |
| 484 µM | 33000 µM | 563 µM and 561 µM | > 1000 µM | Does not inhibit | O=S(=O)(O)c1cc(O)c2c(S(=O)(=O)O)cccc2c1 [RR527] | – | – | – |
